Data as given in patent US20240246977A1, “DEGRADATION OF BRUTON'S TYROSINE KINASE (BTK) BY CONJUGATION OF BTK INHIBITORS WITH E3 LIGASE LIGAND AND METHOD OF USE” (BeiGene Switzerland GmbH, priority 2021, published 2024).

How the values were obtained:
BTK = BTK (Homo sapiens, UniProt Q06187); assay: BTK cell degradation in TMD-8 cells, HTRF assay; format: cell-based; design: endogenous in cells; host or cells: TMD-8 cells; conditions: 6 h treatment, IC50 (DC50) of BTK degradation
Summary of the method: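 TMD-8 cells treated 6 h with 8-dose series (6-fold dilutions, 0.2% DMSO final), then lysed and BTK quantified by HTRF (337/665/620 nm) after overnight antibody incubation at room temperature. Degradation normalized to DMSO high and low controls; DC50 and Dmax from four-parameter fit.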

HEK-293 cells = assay: HEK-293 cytotoxicity detection (CellTiter-Glo); format: cell-based; conditions: Homo sapiens, 72 h, 72 h incubation, CellTiter-Glo luminescence, read-out: HEK293
Summary of the method: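 HEK-293 cells exposed 72 h to 8 compounds doses (4-fold dilutions, top stock 5 mM at 500×) in 0.2% DMSO. Viability by CellTiter-Glo luminescence; inhibition normalised to DMSO high control and low control, IC50 from four-parameter curve fit.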

BTK, sequence (Q06187 whole entry): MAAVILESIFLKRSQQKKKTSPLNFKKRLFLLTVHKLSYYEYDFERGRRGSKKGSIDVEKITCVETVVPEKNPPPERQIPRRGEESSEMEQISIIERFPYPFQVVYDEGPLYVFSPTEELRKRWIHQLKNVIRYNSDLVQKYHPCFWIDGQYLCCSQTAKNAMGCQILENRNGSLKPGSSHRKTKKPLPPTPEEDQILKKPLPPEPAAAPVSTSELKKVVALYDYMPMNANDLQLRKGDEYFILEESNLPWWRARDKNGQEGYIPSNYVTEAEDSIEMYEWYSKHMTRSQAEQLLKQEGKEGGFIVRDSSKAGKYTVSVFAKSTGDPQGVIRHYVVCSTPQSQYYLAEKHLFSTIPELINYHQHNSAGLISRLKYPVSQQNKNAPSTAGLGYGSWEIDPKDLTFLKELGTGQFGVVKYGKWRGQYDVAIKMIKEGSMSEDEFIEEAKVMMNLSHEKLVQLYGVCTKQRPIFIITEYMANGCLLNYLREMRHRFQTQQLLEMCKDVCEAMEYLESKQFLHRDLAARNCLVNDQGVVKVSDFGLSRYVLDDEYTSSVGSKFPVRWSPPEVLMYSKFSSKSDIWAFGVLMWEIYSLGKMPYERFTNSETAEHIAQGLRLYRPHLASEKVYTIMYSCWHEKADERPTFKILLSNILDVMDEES

DC50 (BTK)	SMILES	IC50 (HEK-293 cells)
1.32 nM	NC(=O)c1c(-c2ccc(C(=O)Nc3cccc(C(F)(F)F)n3)cc2)nn2c1Nc1ccc(N3CCN(CC4CCN(c5ccc(N6CCC(=O)NC6=O)cc5)CC4)CC3)cc1CC2 [Example B16, 7-(4-((1-(4-(2,4-dioxotetrahydropyrimidin-1(2H)-yl)phenyl)piperidin-4-yl)methyl)piperazin-1-yl)-2-(4-((6-(trifluoromethyl)pyridin-2-yl)carbamoyl)phenyl)-9,10-dihydro-4H-benzo[d]pyrazolo[1,5-a][1,3]diazepine-3-carboxamide]	232 nM
3.22 nM	NC(=O)c1c(-c2ccc(Oc3ccccc3)cc2)nn2c1Nc1ccc(C(=O)N3CCC(CN4CCN(c5cc6c(cc5F)C(=O)N(C5CCC(=O)NC5=O)C6=O)CC4)CC3)cc1CC2 (centres unmarked) [Example A14, 7-(4-((4-(2-(2,6-dioxopiperidin-3-yl)-6-fluoro-1,3-dioxoisoindolin-5-yl)piperazin-1-yl)methyl)piperidine-1-carbonyl)-2-(4-phenoxyphenyl)-9,10-dihydro-4H-benzo[d]pyrazolo[1,5-a][1,3]diazepine-3-carboxamide]	509 nM
57.8 nM	Cc1cccc(NC(=O)c2ncc(-c3nn4c(c3C(N)=O)Nc3ccc(N5CCN(C6CC(c7ccc([C@H]8CCC(=O)NC8=O)cc7)C6)CC5)cc3CC4)cc2C)n1 (stereo partly drawn) [Example B34, (R)-7-(4-(3-(4-(2,6-dioxopiperidin-3-yl)phenyl)cyclobutyl)piperazin-1-yl)-2-(5-methyl-6-((6-methylpyridin-2-yl)carbamoyl)pyridin-3-yl)-9,10-dihydro-4H-benzo[d]pyrazolo[1,5-a][1,3]diazepine-3-carboxamide]	168 nM
9.8 nM	COc1c(C)cccc1C(=O)NCc1ccc(-c2nn3c(c2C(N)=O)Nc2ccc(N4CCN(CC5CCN(c6ccc(N7CCC(=O)NC7=O)cc6)CC5)CC4)cc2CC3)cc1C [Example C49, 7-(4-((1-(4-(2,4-dioxotetrahydropyrimidin-1(2H)-yl)phenyl)piperidin-4-yl)methyl)piperazin-1-yl)-2-(4-((2-methoxy-3-methylbenzamido)methyl)-3-methylphenyl)-9,10-dihydro-4H-benzo[d]pyrazolo[1,5-a][1,3]diazepine-3-carboxamide]	> 10000 nM
1.76 nM	COc1ccc(C(F)(F)F)cc1C(=O)NCc1ccc(-c2nn3c(c2C(N)=O)Nc2ccc(N4CCN(CC5CCN(c6ccc(N7CCC(=O)NC7=O)cc6)CC5)CC4)cc2CC3)c(OC)c1 [Example C27, 7-(4-((1-(4-(2,4-dioxotetrahydropyrimidin-1(2H)-yl)phenyl)piperidin-4-yl)methyl)piperazin-1-yl)-2-(2-methoxy-4-((2-methoxy-5-(trifluoromethyl)benzamido)methyl)phenyl)-9,10-dihydro-4H-benzo[d]pyrazolo[1,5-a][1,3]diazepine-3-carboxamide]	209 nM
0.586 nM	Cc1c(C(=O)Nc2cscn2)ccc(-c2nn3c(c2C(N)=O)Nc2ccc(N4CCN(CCc5cccc6c5oc(=O)n6C5CCC(=O)NC5=O)CC4)cc2CC3)c1F (centres unmarked) [Example B96, 7-(4-(2-(3-(2,6-dioxopiperidin-3-yl)-2-oxo-2,3-dihydrobenzo[d]oxazol-7-yl)ethyl)piperazin-1-yl)-2-(2-fluoro-3-methyl-4-(thiazol-4-ylcarbamoyl)phenyl)-9,10-dihydro-4H-benzo[d]pyrazolo[1,5-a][1,3]diazepine-3-carboxamide]	116 nM
1.51 nM	NC(=O)c1c(-c2ccc(C(=O)Nc3cc(C(F)(F)F)ccn3)cc2Cl)nn2c1Nc1ccc(N3CCN(CC4CCN(c5ccc(N6CCC(=O)NC6=O)cc5)CC4)CC3)cc1CC2 [Example B24, 2-(2-chloro-4-((4-(trifluoromethyl)pyridin-2-yl)carbamoyl)phenyl)-7-(4-((1-(4-(2,4-dioxotetrahydropyrimidin-1(2H)-yl)phenyl)piperidin-4-yl)methyl)piperazin-1-yl)-9,10-dihydro-4-benzo[d]pyrazolo[1,5-a][1,3]diazepine-3-carboxamide]	> 10000 nM
0.284 nM	Cc1cccc(NC(=O)c2ccc(-c3nn4c(c3C(N)=O)Nc3ccc(N5CCN(CC6CCN(c7ccc(N8CCC(=O)NC8=O)cc7)CC6)CC5)cc3CC4)cc2)n1 [Example B19, 7-(4-((1-(4-(2,4-dioxotetrahydropyrimidin-1(2H)-yl)phenyl)piperidin-4-yl)methyl)piperazin-1-yl)-2-(4-((6-methylpyridin-2-yl)carbamoyl)phenyl)-9,10-dihydro-4H-benzo[d]pyrazolo[1,5-a][1,3]diazepine-3-carboxamide]	> 10000 nM
1.47 nM	Cc1cccc(NC(=O)c2ccc(-c3nn4c(c3C(N)=O)Nc3ccc(N5CCN(CC6CN(c7ccc(N8CCC(=O)NC8=O)cc7)C6)CC5)cc3CC4)c(F)c2C)n1 [Example B59, 7-(4-((1-(4-(2,4-dioxotetrahydropyrimidin-1(2H)-yl)phenyl)azetidin-3-yl)methyl)piperazin-1-yl)-2-(2-fluoro-3-methyl-4-((6-methylpyridin-2-yl)carbamoyl)phenyl)-9,10-dihydro-4H-benzo[d]pyrazolo[1,5-a][1,3]diazepine-3-carboxamide]	> 10000 nM
7.45 nM	Cc1cccc(NC(=O)c2ccc(-c3nn4c(c3C(N)=O)Nc3ccc(N5CCN(C6CC(c7ccc(N[C@@H]8CCC(=O)NC8=O)cc7)C6)CC5)cc3CC4)c(F)c2C)n1 (stereo partly drawn) [Example B71, (R)-7-(4-(3-(4-((2,6-dioxopiperidin-3-yl)amino)phenyl)cyclobutyl)piperazin-1-yl)-2-(2-fluoro-3-methyl-4-((6-methylpyridin-2-yl)carbamoyl)phenyl)-9,10-dihydro-4H-benzo[d]pyrazolo[1,5-a][1,3]diazepine-3-carboxamide]	> 10000 nM
7.96 nM	COc1cccc(C)c1C(=O)NCc1ccc(-c2nn3c(c2C(N)=O)Nc2ccc(N4CCN(CC5CCN(c6ccc(N7CCC(=O)NC7=O)cc6)CC5)CC4)cc2CC3)cc1C [Example C38, 7-(4-((1-(4-(2,4-dioxotetrahydropyrimidin-1(2H)-yl)phenyl)piperidin-4-yl)methyl)piperazin-1-yl)-2-(4-((2-methoxy-6-methylbenzamido)methyl)-3-methylphenyl)-9,10-dihydro-4H-benzo[d]pyrazolo[1,5-a][1,3]diazepine-3-carboxamide]	> 10000 nM
0.282 nM	COc1ccc2ccccc2c1C(=O)NCc1ccc(-c2nn3c(c2C(N)=O)Nc2ccc(N4CCN(CC5CCN(c6ccc(N7CCC(=O)NC7=O)cc6)CC5)CC4)cc2CC3)cc1 [Example C4, 7-(4-((1-(4-(2,4-dioxotetrahydropyrimidin-1(2H)-yl)phenyl)piperidin-4-yl)methyl)piperazin-1-yl)-2-(4-((2-methoxy-1-naphthamido)methyl)phenyl)-9,10-dihydro-4H-benzo[d]pyrazolo[1,5-a][1,3]diazepine-3-carboxamide]	> 10000 nM
14.6 nM	CC(Nc1cc(C(F)(F)F)ccn1)c1ccc(-c2nn3c(c2C(N)=O)Nc2ccc(N4CCN(CC5CCN(c6ccc(N7CCC(=O)NC7=O)cc6)CC5)CC4)cc2CC3)cc1 (centres unmarked) [Example C15, 7-(4-((1-(4-(2,4-dioxotetrahydropyrimidin-1(2H)-yl)phenyl)piperidin-4-yl)methyl)piperazin-1-yl)-2-(4-(1-((4-(trifluoromethyl)pyridin-2-yl)amino)ethyl)phenyl)-9,10-dihydro-4H-benzo[d]pyrazolo[1,5-a][1,3]diazepine-3-carboxamide]	8850 nM
